Marks after values point to notes of the source that are not given here.
System: soluble Aβ40
Assay: Soluble (DEA) brain Aβ40 levels in Tg2576 mice after MRK-560, ELISA
Assay type: in vivo, Tg2576 transgenic mice
Description: C57BL/6 female mice (Harlan Laboratories, Horst, The Netherlands), Tg2576 transgenic female mice (Taconics, Georgetown, NY), overexpressing human APP with the Swedish mutation (Hsiao et al. [1996]), and Tg2576 wild-type littermates were used in the experiments. The C57BL/6 and wild-type littermates were only used for pharmacokinetic PK sampling and analysis. The housing environment was humidity- and temperature-controlled with a constant 12-h light/dark cycle. The animals were kept in conventional housing (5–10 mice per cage) and had access to standard rodent chow and tap water ad libitum. The transgenic mice were aged at the local AstraZeneca (AZ) animal facilities. On the day of study, the mice were weighed. MRK-560 (synthesized in-house; AZ) or vehicle was administered by oral gavage. Three types of vehicles were used: (1) 1% MCC/NaCMC (Microcrystalline Cellulose/Sodiumcarboxymethyl Cellulose) +0.6% lipoid S100, (2) 20% HPβCD in 0.1 mol/L Meglumine, and (3) 40% HPβCD in 0.3 mol/L Meglumine. Observations of the animals’ health were made throughout all the experiments. Data from 23 MRK-560 studies were used in this analysis and details of all studies can be found in Table 1. For the AP analysis, data from vehicle and untreated Tg2576 mice from 48 additional (i.e., non-MRK-560) in-house studies were used. The additional dataset consisted of Aβ levels measured in Tg2576 mice of various ages, between 3.5 and 26 months at termination. Details of those data can be found in Appelkvist et al. ([2011]). In total, data from 71 preclinical studies were used.
After blood sampling, mice were sacrificed by decapitation followed by brain samples collection. Cerebellum and olfactory bulbs were removed and the forebrain was divided into left and right hemispheres, weighed, and snap frozen.
Left hemisphere of the cerebrum was sequentially extracted by diethylamine (DEA) followed by formic acid (FA) to obtain soluble and insoluble fractions of Aβ species, respectively. In short, brain tissue was sonicated in 1:18 (w/v) 0.2% DEA and 50 mmol/L NaCl, pH 11.6. After centrifugation (133,000g, 4°C, 1 h), the supernatant (soluble Aβ) was recovered, neutralized to a pH of 8.0 using 2 mol/L Tris-HCl, and immediately frozen to -70°C. The remaining pellet was sonicated in 1:18 (w/v) 70% FA. Homogenates were centrifuged at +4°C for 1 h at 133,000g. Recovered supernatants (insoluble Aβ) were neutralized to pH 7.5 with 1 mol/L Tris at 1:20 (w/v) dilutions, frozen on dry ice, and stored at −70°C until analysis.
Amyloid beta (Aβ40) and Aβ42 concentrations were measured in plasma, in soluble (DEA), and insoluble (FA) brain fractions using commercial sandwich ELISA kits (KHB3482 from Invitrogen, Carlsbad, CA, and RUO80177 from Innogenetics, Gent, Belgium). To compensate for matrix effects, plasma or brain homogenates from non-transgenic mice were used for preparation of standard curves. The lower and higher limits of quantification (LLOQ and HLOQ) were determined for each immunoassay plate based on the lowest and highest standard point, respectively. The coefficient of variation was less than20% and the accuracy was between 80% and 120%.
Statistical comparisons of the vehicle and MRK-560 treatment data were made by unpaired t-tests. The level of significance was set at P < 0.05. All analyses were performed using GraphPad Prism (GraphPad Prism Software Inc., San Diego, CA) and results were reported as mean ± SEM.

SMILES: O=S(=O)(NC1CCC(c2cc(F)ccc2F)(S(=O)(=O)c2ccc(Cl)cc2)CC1)C(F)(F)F (stereo not drawn) [MRK-560, N-[cis-4-[(4-chlorophenyl)-sulfonyl]-4-(2,5-difluorophenyl)cyclohexyl]-1,1,1-trifluoromethanesulfonamide]
- decrease from baseline in soluble Aβ40 levels (70 μmol/kg single dose, young mice, 6 h after dosing): 74%
- Effect on soluble Aβ40 (study 7, Tg2576, 20 weeks at start, 70 μmol/kg p.o., 4 days, 3 h since last dosing, P < 0.05): −72 ^* %
- Effect on soluble Aβ40 (study 8, Tg2576, 24 weeks at start, 0.5 μmol/kg p.o., 30 days, 3 h since last dosing): −6%
- Effect on soluble Aβ40 (study 8, Tg2576, 24 weeks at start, 6 μmol/kg p.o., 30 days, 3 h since last dosing, P < 0.05): −45.6 ^* %
- Effect on soluble Aβ40 (study 9, Tg2576, 24 weeks at start, 0.5 μmol/kg p.o., 94 days, 3 h since last dosing): −17%
- Effect on soluble Aβ40 (study 9, Tg2576, 24 weeks at start, 6 μmol/kg p.o., 94 days, 3 h since last dosing): −28%
- Effect on soluble Aβ40 (study 10, Tg2576, 24 weeks at start, 1 μmol/kg p.o., 29 days, 3 h since last dosing, P < 0.05): −26 ^* %
- Effect on soluble Aβ40 (study 10, Tg2576, 24 weeks at start, 3 μmol/kg p.o., 29 days, 3 h since last dosing, P < 0.05): −41 ^* %
- Effect on soluble Aβ40 (study 10, Tg2576, 24 weeks at start, 6 μmol/kg p.o., 29 days, 3 h since last dosing, P < 0.05): −47 ^* %
- Effect on soluble Aβ40 (study 11, Tg2576, 24 weeks at start, 6 μmol/kg p.o., 30 days, 3 h since last dosing, P < 0.05): −40 ^* %
- Effect on soluble Aβ40 (study 12, Tg2576, 25 weeks at start, 70 μmol/kg p.o., 1 day, 3 h since last dosing, P < 0.05): −76 ^* %
- Effect on soluble Aβ40 (study 13, Tg2576, 25 weeks at start, 1 μmol/kg p.o., 4 days, 3 h since last dosing, P < 0.05): −41 ^* %
- Effect on soluble Aβ40 (study 13, Tg2576, 25 weeks at start, 3 μmol/kg p.o., 4 days, 3 h since last dosing, P < 0.05): −56 ^* %
- Effect on soluble Aβ40 (study 13, Tg2576, 25 weeks at start, 7.5 μmol/kg p.o., 4 days, 3 h since last dosing, P < 0.05): −69 ^* %
- Effect on soluble Aβ40 (study 14, Tg2576, 25 weeks at start, 70 μmol/kg p.o., 1 day, samples 3, 6, 24, 48, 120 h (text: 74% at 6 h), P < 0.05): −74 ^* %
- Effect on soluble Aβ40 (study 15, Tg2576, 36 weeks at start, 6 μmol/kg p.o., vehicle 3, 8 days, 3 h since last dosing, P < 0.05): −50 ^* %
- Effect on soluble Aβ40 (study 16, Tg2576, 60 weeks at start, 6 μmol/kg p.o., 4 days, 3 h since last dosing): −17%
- Effect on soluble Aβ40 (study 17, Tg2576, 68 weeks at start, 6 μmol/kg p.o., 4 days, 3 h since last dosing): −6.3%
- Effect on soluble Aβ40 (study 18, Tg2576, 81–89 weeks at start, 70 μmol/kg p.o., 1 day, samples 6, 24, 48, 96 h, time of this value not given): 8%
- Effect on soluble Aβ40 (study 19, Tg2576, 32 weeks at start, 30 μmol/kg p.o., 4 days, 4.5 h since last dosing, P < 0.05): −55 ^* %
- Effect on soluble Aβ40 (study 20, Tg2576, 32 weeks at start, 30 μmol/kg p.o., 21 days, 4.5 h since last dosing, P < 0.05): −70 ^* %
- Effect on soluble Aβ40 (study 21, Tg2576, 36 weeks at start, 6 μmol/kg p.o., vehicle 3, 8 days, 3 h since last dosing, P < 0.05): −63 ^* %
- Effect on soluble Aβ40 (study 22, Tg2576, 24–28 weeks at start, 30 μmol/kg p.o., 45 days, 4.5 h since last dosing, P < 0.05): −57 ^* %
- Effect on soluble Aβ40 (study 23, Tg2576, 37–40 weeks at start, 30 μmol/kg p.o., 28 days, 4.5 h since last dosing, P < 0.05): −56 ^* %
